The nature of test [1]: (§1) Biochemical Assay: A variety of Ras proteins may be inhibited by compounds of the present invention (e.g., K-Ras, N-Ras, H-Ras, and mutants thereof at positions 12, 13 and 61, such as G12C, G12D, G12V, G12S, G13C, G13D, and Q61L, and others described herein). The purpose of this biochemical assay is to measure the ability of test compounds to covalently label nucleotide-loaded K-Ras isoforms. […] The sample is incubated at 25? C. for a time period of up to 24 hours prior to quenching by the addition of 10 uL of 5% Formic Acid. Quenched samples are centrifuged at 15000 rpm for 15 minutes in a benchtop centrifuge before injecting a 10 uL aliquot onto a reverse phase C4 column and eluting into the mass spectrometer with an increasing acetonitrile gradient in the mobile phase. Analysis of raw data may be carried out using Waters MassLynx MS software, with % bound calculated from the deconvoluted protein peaks for labeled and unlabeled K-Ras.

The target in the next test is GTPase NRas (Homo sapiens, UniProt P01111). The test is described as §1.
Test [2] addresses T1, GTPase KRas (Homo sapiens, UniProt P01116). The test can be described thus: (§2) The purpose of this biochemical assay is to measure the ability of test compounds to covalently label nucleotide-loaded K-Ras isoforms. […] Analysis of raw data may be carried out using Waters MassLynx MS software, with % bound calculated from the deconvoluted protein peaks for labeled and unlabeled K-Ras.

A short description of test [3]: as §1. This is another data set of the same source.
Test [4] in a line: as §1. The source holds these as a separate data set.
In test [5] the target is T1, GTPase KRas. The test is described as §2. The source holds these as a separate data set.
Test [6] in a line: as §1. This is another data set of the same source.
Test [7] in a line: as §1. This is another data set of the same source.
Test [8] can be described thus: as §1. This is another data set of the same source.
The nature of test [9]: as §1. The source holds these as a separate data set.

Chain of GTPase NRas (P01111 whole entry, looked up, canonical isoform): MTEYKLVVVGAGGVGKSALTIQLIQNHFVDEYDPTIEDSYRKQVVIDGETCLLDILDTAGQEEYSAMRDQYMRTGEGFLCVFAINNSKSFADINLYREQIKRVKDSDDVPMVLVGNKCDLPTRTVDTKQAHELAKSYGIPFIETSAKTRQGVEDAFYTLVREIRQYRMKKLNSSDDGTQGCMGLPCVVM

Turning to `CCn1c(-c2cccnc2C(C)OC)c2c3cc(ccc31)-c1cccc(c1)C[C@H](NC(=O)[C@H](C(C)C)N(C)C(=O)N1CCC13CN(C(=O)C#CC(C)(C)N(C)C)C3)C(=O)N1CCC[C@H](N1)C(=O)OCC(C)(C)C2` (some centres not stated), the IC50 result was “in the range around 550 nM” in [1]; “in the range around 550 nM” at GTPase NRas; “in the range around 5500 nM” on GTPase KRas [2]; “in the range around 550 nM” in [3]; “in the range around 550 nM” in test [4]; “in the range around 550 nM” on GTPase KRas [5]. Besides, the IC50 entry in [6] is “in the range around 550 nM”; in test [7], “in the range around 55 nM”; in test [8] it was “in the range around 55 nM”; in [9], “in the range around 550 nM”.

Take `C=CC(=O)N1CC[C@H](C(=O)N(C)[C@H](C(=O)N[C@H]2Cc3cc(O)cc(c3)-c3ccc4c(c3)c(c(-c3nccnc3COC)n4CC)CC(C)(C)COC(=O)[C@@H]3CCCN(N3)C2=O)C(C)C)C1`: the IC50 result (at GTPase KRas [2]; in test [7]) was “in the range around 5500 nM” throughout.

For the compound `C=CC(=O)N1CC[C@H](C(=O)N(C)[C@H](C(=O)N[C@H]2Cc3cc(O)cc(c3)-c3ccc4c(c3)c(c(-c3cncc(CCN(C)C)c3)n4CC)CC(C)(C)COC(=O)[C@@H]3CCCN(N3)C2=O)C(C)C)C1`, the IC50 result at GTPase KRas [2] is “in the range around 550 nM”; in test [4], “in the range around 5500 nM”.

As for `C=CC(=O)N1CC[C@H](C(=O)N(C)[C@H](C(=O)N[C@H]2Cc3cc(O)cc(c3)-c3ccc4c(c3)c(c(-c3cnn(C)c3)n4CC)CC(C)(C)COC(=O)[C@@H]3CCCN(N3)C2=O)C(C)C)C1`, the concentration for half-maximal inhibition (IC50) result at GTPase KRas [2] was “in the range around 550 nM”; in test [4] it was “in the range around 5500 nM”.

For the compound `CCn1c(-c2ccccc2COC)c2c3cc(ccc31)-c1cc(O)cc(c1)C[C@H](NC(=O)[C@H](C(C)C)N(C)C(=O)[C@H]1CCN(C(=O)/C=C/CN(C)C)C1)C(=O)N1CCC[C@H](N1)C(=O)OCC(C)(C)C2`, at GTPase KRas [2], the IC50 entry is “in the range around 55 nM”.

In the case of `C=CC(=O)N1CC(C(=O)N(C)[C@H](C(=O)N[C@H]2Cc3cc(O)cc(c3)-c3ccc4c(c3)c(c(-c3cccnc3COC)n4CC)CC(C)(C)COC(=O)[C@@H]3CCCN(N3)C2=O)C(C)C)C1`, the values for the IC50 result (at GTPase KRas [2]; in [4]) were “in the range around 55 nM” and “in the range around 5500 nM”, respectively.

`C=CC(=O)N1CC[C@H](C(=O)N(C)[C@H](C(=O)N[C@H]2Cc3cc(O)cc(c3)-c3ccc4c(c3)c(c(-c3cnccc3COC)n4CC)CC(C)(C)COC(=O)[C@@H]3CCCN(N3)C2=O)C(C)C)C1`: the figures for the concentration for half-maximal inhibition (IC50) result (on GTPase KRas [2]; in [3]) were “in the range around 55 nM” and “in the range around 550 nM”, respectively.

For the compound `C=CC(=O)N1CC[C@H](C(=O)N(C)[C@H](C(=O)N[C@H]2Cc3cc(O)cc(c3)-c3ccc4c(c3)c(c(-c3cccnc3COC)n4CC#N)CC(C)(C)COC(=O)[C@@H]3CCCN(N3)C2=O)C(C)C)C1`, the IC50 result at GTPase KRas [2] is “in the range around 55 nM”.

Consider `C=CC(=O)N1CCN(C(=O)N(C)[C@H](C(=O)N[C@H]2Cc3cc(O)cc(c3)-c3ccc4c(c3)c(c(-c3ccccc3CN(C)C)n4CC)CC(C)(C)COC(=O)[C@@H]3CCCN(N3)C2=O)C(C)C)CC1`, for which the 50% inhibitory concentration (IC50) entry (in test [1]; in [3]; in test [4]; at GTPase KRas [5]) was “in the range around 550 nM” in each case.

Turning to `CCn1c(-c2cccnc2COC)c2c3cc(ccc31)-c1cc(O)cc(c1)C[C@H](NC(=O)[C@H](C(C)C)N(C)C(=O)[C@H]1CCN(C(=O)C#CCN(C)C)C1)C(=O)N1CCC[C@H](N1)C(=O)OCC(C)(C)C2`, on GTPase KRas [5], the IC50 result is “in the range around 550 nM”.

As for `C=CC(=O)N1CC[C@H](C(=O)N(C)[C@H](C(=O)N[C@H]2Cc3cc(O)cc(c3)-c3ccc4c(c3)c(c(-c3cccnc3CN(C)C)n4CC)CC(C)(C)COC(=O)[C@@H]3CCCN(N3)C2=O)C(C)C)C1`, the results for the concentration for half-maximal inhibition (IC50) result (on GTPase KRas [2]; in [4]) were “in the range around 550 nM” and “in the range around 5500 nM”, respectively.

Regarding `CCn1c(-c2ccccc2CCOC)c2c3cc(ccc31)-c1cc(O)cc(c1)C[C@H](NC(=O)[C@H](C(C)C)N(C)C(=O)[C@H]1CCN(C(=O)C#CCN(C)C)C1)C(=O)N1CCC[C@H](N1)C(=O)OCC(C)(C)C2`, the IC50 result was “in the range around 5500 nM” in test [1]; “in the range around 55 nM” at GTPase KRas [2]; “in the range around 550 nM” in test [3]; “in the range around 5500 nM” in test [4]; “in the range around 5500 nM” on GTPase KRas [5].

With `C=CC(=O)N1CC[C@H](C(=O)N(C)[C@H](C(=O)N[C@H]2Cc3cc(O)cc(c3)-c3ccc4c(c3)c(c(-c3ccc(C5CCN(C)CC5)nc3)n4CC)CC(C)(C)COC(=O)[C@@H]3CCCN(N3)C2=O)C(C)C)C1`, the results for the IC50 entry (at GTPase KRas [2]; in test [4]) were “in the range around 550 nM” and “in the range around 5500 nM”, respectively.

For the compound `C=CC(=O)N1CC[C@H](C(=O)N(C)[C@H](C(=O)N[C@H]2Cc3cc(OC(=O)N(C)CC(=O)O)cc(c3)-c3ccc4c(c3)c(c(-c3ccccc3CCOC)n4CC)CC(C)(C)COC(=O)[C@@H]3CCCN(N3)C2=O)C(C)C)C1`, the IC50 result on GTPase KRas [2] is “in the range around 550 nM”.

`C=CC(=O)N1CC[C@H](C(=O)N(C)[C@H](C(=O)N[C@H]2Cc3cc(O)cc(c3)-c3ccc4c(c3)c(c(-c3ccc5c(c3)CCN(C)C5)n4CC)CC(C)(C)COC(=O)[C@@H]3CCCN(N3)C2=O)C(C)C)C1`: the half-maximal inhibitory concentration (IC50) entry on GTPase KRas [2] is “in the range around 550 nM”; in [4], “in the range around 5500 nM”.

For the compound `C=CC(=O)N1CC[C@H](C(=O)N(C)[C@H](C(=O)N[C@H]2Cc3cc(O)cc(c3)-c3ccc4c(c3)c(c(C3=C(COC)COCC3)n4CC)CC(C)(C)COC(=O)[C@@H]3CCCN(N3)C2=O)C(C)C)C1`, the IC50 result at GTPase KRas [2] is “in the range around 55 nM”.

Take `C=CC(=O)N1CC[C@H](C(=O)N(C)[C@H](C(=O)N[C@H]2Cc3cc(O)cc(c3)-c3ccc4c(c3)c(c(-c3ncccc3COC)n4CC)CC(C)(C)COC(=O)[C@@H]3CCCN(N3)C2=O)C(C)C)C1`: the IC50 result (at GTPase KRas [2]; in test [7]) was “in the range around 5500 nM” in each case.

The IC50 is the concentration at which inhibition is half-maximal.

The values are drawn from ChEMBL document CHEMBL5729568, “Ras inhibitors” (2023).
